# Measurements reported in ChEMBL document CHEMBL5634118, “Inhibition of Son of Sevenless Homologue 1 (SOS1): Promising therapeutic treatment for KRAS-mutant cancers” (Eur J Med Chem, 2023).
# What was measured:
# [1] = Half life in mouse; format: ADME, organism-based; conditions: in vivo
# [2] = biological target: T1, Son of sevenless homolog 1 (Homo sapiens, UniProt Q07889); assay: Inhibition of SOS1 in human Calu-1 cells assessed as reduction in pERK level incubated for 24 hrs by HTRF analysis; format: cell-based
# T1 sequence (Q07889 whole entry): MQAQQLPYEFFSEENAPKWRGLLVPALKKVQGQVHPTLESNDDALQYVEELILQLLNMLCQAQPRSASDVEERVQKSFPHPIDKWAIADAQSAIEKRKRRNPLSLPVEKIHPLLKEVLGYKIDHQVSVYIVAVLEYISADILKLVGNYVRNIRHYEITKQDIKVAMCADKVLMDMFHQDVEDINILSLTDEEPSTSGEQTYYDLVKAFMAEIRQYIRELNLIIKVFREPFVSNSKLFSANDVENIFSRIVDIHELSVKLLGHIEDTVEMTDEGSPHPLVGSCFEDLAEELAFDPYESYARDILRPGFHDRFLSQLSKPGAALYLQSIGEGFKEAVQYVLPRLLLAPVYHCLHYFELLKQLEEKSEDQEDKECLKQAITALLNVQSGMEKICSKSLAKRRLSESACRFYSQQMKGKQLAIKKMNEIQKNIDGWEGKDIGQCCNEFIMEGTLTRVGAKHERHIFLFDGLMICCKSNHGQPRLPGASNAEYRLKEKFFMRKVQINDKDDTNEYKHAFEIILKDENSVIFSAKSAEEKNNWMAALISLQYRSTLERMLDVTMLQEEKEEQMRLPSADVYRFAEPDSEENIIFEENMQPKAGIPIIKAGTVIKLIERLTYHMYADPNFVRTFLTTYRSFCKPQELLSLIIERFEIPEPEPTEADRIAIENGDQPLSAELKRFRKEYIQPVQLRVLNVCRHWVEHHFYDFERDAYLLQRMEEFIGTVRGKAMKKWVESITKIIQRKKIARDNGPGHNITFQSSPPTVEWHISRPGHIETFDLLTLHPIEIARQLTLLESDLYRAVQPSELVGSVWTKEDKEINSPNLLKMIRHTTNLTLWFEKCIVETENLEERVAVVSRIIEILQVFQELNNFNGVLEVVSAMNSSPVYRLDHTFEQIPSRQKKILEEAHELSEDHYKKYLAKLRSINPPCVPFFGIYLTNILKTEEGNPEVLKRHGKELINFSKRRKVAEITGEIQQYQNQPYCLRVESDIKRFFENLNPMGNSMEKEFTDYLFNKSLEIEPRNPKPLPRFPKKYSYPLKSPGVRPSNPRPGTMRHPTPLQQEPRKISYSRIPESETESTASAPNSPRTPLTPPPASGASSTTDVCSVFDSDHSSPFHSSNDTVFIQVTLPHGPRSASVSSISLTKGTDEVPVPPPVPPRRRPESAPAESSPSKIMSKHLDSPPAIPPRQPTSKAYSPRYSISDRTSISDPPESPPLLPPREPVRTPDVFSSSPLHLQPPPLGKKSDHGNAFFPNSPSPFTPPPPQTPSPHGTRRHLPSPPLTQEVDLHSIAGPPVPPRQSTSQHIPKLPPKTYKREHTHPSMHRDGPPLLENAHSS
# [3] = test system: MIA PaCa-2; assay: Antiproliferative activity against human MIA PaCa-2 cells assessed as reduction in cell growth measured after 48 hrs by MTT assay; format: functional, cell-based; conditions: MIA PaCa-2, 48 h
# [4] = Intrinsic clearance in mouse liver microsomes; format: ADME, Microsome; conditions: read-out: CLH
# [5] = test system: MIA PaCa-2; assay: Antitumor activity against human MIA PaCa-2 cells xenografted in mouse model assessed as tumor growth inhibition at 50 mg/kg, po relative to control; format: functional; conditions: read-out: TGI
# [6] = Half life in CD-1 mouse at 20 mg/kg, po measured after 24 hrs by LC-MS/MS analysis; format: ADME, organism-based; conditions: in vivo
# [7] = biological target: T1, Son of sevenless homolog 1; assay: Inhibition of SOS1 (unknown origin) by HTRF assay
# [8] = test system: MIA PaCa-2; assay: Antitumor activity against human MIA PaCa-2 cells xenografted in CD-1 mouse assessed as in tumor growth inhibition at 20 mg/kg, po BID for 22 days relative to control; format: functional; conditions: MIA PaCa-2, 528 h, time 22 day, read-out: TGI
# [9] = biological target: T1, Son of sevenless homolog 1; assay: Binding affinity to SOS1 (unknown origin) assessed as inhibition constant by HTRF method
# [10] = Oral bioavailability in CD-1 mouse at 20 mg/kg measured upto 24 hrs by LC/MS/MS analysis; format: ADME, organism-based; conditions: in vivo
# [11] = test system: MIA PaCa-2; assay: Antitumor activity against human MIA PaCa-2 cells xenografted in CD-1 mouse assessed as tumor growth inhibition at 20 mg/kg BID for 22 days relative to control; format: functional; conditions: MIA PaCa-2, 528 h, time 22 day, read-out: TGI
# [12] = Volume of distribution at steady state in CD-1 mouse at 5 mg/kg, ip measured after 24 hrs by LC-MS/MS analysis; format: ADME, organism-based; conditions: in vivo
# [13] = biological target: Epidermal growth factor receptor (Homo sapiens, UniProt P00533); assay: Inhibition of EGFR (unknown origin)
# Sequence of Epidermal growth factor receptor (P00533 whole entry): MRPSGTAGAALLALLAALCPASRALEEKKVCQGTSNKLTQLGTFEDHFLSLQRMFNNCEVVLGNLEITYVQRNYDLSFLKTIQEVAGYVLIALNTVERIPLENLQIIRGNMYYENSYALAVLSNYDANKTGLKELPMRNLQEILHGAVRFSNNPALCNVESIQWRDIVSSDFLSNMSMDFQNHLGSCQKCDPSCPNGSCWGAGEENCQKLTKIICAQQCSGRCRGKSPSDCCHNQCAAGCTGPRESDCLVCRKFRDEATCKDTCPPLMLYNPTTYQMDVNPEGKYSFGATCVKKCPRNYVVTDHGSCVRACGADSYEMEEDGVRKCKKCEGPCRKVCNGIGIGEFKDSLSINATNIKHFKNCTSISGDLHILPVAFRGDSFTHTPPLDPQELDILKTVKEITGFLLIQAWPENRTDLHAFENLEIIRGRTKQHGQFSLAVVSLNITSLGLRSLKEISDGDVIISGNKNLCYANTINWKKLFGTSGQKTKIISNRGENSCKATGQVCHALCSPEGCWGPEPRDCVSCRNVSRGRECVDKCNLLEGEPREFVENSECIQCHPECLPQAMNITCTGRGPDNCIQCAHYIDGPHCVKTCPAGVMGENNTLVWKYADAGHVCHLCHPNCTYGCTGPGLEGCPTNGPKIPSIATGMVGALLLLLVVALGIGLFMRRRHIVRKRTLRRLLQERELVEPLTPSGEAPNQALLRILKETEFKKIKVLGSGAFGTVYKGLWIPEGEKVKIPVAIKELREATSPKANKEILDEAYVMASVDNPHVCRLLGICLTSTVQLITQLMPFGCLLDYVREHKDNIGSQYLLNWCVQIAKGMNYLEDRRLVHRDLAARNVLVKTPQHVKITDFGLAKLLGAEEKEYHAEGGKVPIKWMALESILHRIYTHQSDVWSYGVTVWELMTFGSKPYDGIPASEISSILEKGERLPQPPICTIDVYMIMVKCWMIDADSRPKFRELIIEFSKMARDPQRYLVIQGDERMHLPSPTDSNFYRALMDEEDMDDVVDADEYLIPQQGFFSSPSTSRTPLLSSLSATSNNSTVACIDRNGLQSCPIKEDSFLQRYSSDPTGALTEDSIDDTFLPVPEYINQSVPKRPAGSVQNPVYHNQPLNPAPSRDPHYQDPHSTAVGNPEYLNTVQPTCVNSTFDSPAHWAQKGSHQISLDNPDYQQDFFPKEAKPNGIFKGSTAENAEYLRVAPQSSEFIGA
# [14] = test system: MIA PaCa-2; assay: Antiproliferative activity against human MIA PaCa-2 cells harboring KRAS G12C mutant assessed as reduction in cell viability incubated for 72 hrs by MTT assay; format: functional, cell-based; conditions: MIA PaCa-2, 72 h
# [15] = test system: MIA PaCa-2; assay: Antitumor activity against human MIA PaCa-2 cells xenografted in CD-1 mouse assessed as tumor inhibition at 20 mg/kg, po BID for 22 days relative to control; format: functional; conditions: MIA PaCa-2, 528 h, time 22 day, read-out: TGI
# [16] = Clearance in CD-1 mouse at 5 mg/kg, ip measured after 24 hrs by LC-MS/MS analysis; format: ADME, organism-based; conditions: in vivo
# [17] = biological target: von Hippel-Lindau disease tumor suppressor/Son of sevenless homolog 1 (Homo sapiens, UniProt Q07889+P40337, G12V); assay: PROTAC activity at VHL/SOS1 in human NCI-H358 cells harboring KRAS G12V mutant assessed as induction of SOS1 degradation incubated for 24 hrs by immunoblotting analysis; format: cell-based
# Sequence of von Hippel-Lindau disease tumor suppressor/Son of sevenless homolog 1 (Homo sapiens, UniProt Q07889+P40337, G12V) (P40337 whole entry, looked up, stated change not applied, one chain of several): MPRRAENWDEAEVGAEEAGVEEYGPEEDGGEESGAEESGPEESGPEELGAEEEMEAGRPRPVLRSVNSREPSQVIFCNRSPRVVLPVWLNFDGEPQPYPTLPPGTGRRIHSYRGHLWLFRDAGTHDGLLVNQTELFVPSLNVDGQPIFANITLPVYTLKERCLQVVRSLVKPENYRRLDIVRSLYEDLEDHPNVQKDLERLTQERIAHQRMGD
# [18] = test system: NCI-H358; assay: Antitumor activity against human NCI-H358 cells harboring KRAS G12V mutant xenografted in mouse model assessed as tumor growth inhibition at 10 mg/kg, ip administered once daily for 3 weeks relative to control; format: functional; conditions: NCI-H358, 504 h, read-out: TGI
# [19] = test system: CAL-62; assay: Antiproliferative activity against human CAL-62 cells harboring KRAS G12R mutant assessed as inhibition of cell proliferation incubated for 7 days by CellTiterGlo-3D proliferation assay; format: functional, cell-based; conditions: CAL-62, 168 h
# [20] = test system: NCI-H460; assay: Antiproliferative activity against human NCI-H460 cells harboring KRAS […] mutant assessed as inhibition of cell proliferation incubated for 7 days by CellTiterGlo-3D proliferation assay; format: functional, cell-based; conditions: NCI-H460, 168 h
# [21] = Half life in mouse at 10 mg/kg, ip by LC-MS analysis; format: ADME, organism-based; conditions: in vivo
# [22] = biological target: von Hippel-Lindau disease tumor suppressor/Son of sevenless homolog 1 (Homo sapiens, UniProt Q07889+P40337, G12S); assay: PROTAC activity at VHL/SOS1 in human NCI-H358 cells harboring KRAS G12S mutant assessed as induction of SOS1 degradation incubated for 24 hrs by immunoblotting analysis; format: cell-based
# Sequence of von Hippel-Lindau disease tumor suppressor/Son of sevenless homolog 1 (Homo sapiens, UniProt Q07889+P40337, G12S) (P40337 whole entry, looked up, stated change not applied, one chain of several): as above
# [23] = biological target: von Hippel-Lindau disease tumor suppressor/Son of sevenless homolog 1 (Homo sapiens, UniProt Q07889+P40337, G12C); assay: PROTAC activity at VHL/SOS1 in human NCI-H358 cells harboring KRAS G12C mutant assessed as induction of SOS1 degradation incubated for 24 hrs by immunoblotting analysis; format: cell-based
# Sequence of von Hippel-Lindau disease tumor suppressor/Son of sevenless homolog 1 (Homo sapiens, UniProt Q07889+P40337, G12C) (P40337 whole entry, looked up, stated change not applied, one chain of several): as above
# [24] = test system: NCI-H358; assay: Antitumor activity against human NCI-H358 cells harboring KRAS […] mutant xenografted in mouse model assessed as tumor growth inhibition at 10 mg/kg, ip administered once daily for 3 weeks relative to control; format: functional; conditions: NCI-H358, 504 h, read-out: TGI
# [25] = biological target: von Hippel-Lindau disease tumor suppressor/Son of sevenless homolog 1 (Homo sapiens, UniProt Q07889+P40337, G12D); assay: PROTAC activity at VHL/SOS1 in human NCI-H358 cells harboring KRAS […] mutant assessed as induction of SOS1 degradation incubated for 24 hrs by immunoblotting analysis; format: cell-based
# Sequence of von Hippel-Lindau disease tumor suppressor/Son of sevenless homolog 1 (Homo sapiens, UniProt Q07889+P40337, G12D) (P40337 whole entry, looked up, stated change not applied, one chain of several): as above
# [26] = AUC in mouse at 10 mg/kg, ip by LC-MS analysis; format: ADME, organism-based; conditions: in vivo
# [27] = biological target: von Hippel-Lindau disease tumor suppressor/Son of sevenless homolog 1 (Homo sapiens, UniProt Q07889+P40337, G12R); assay: PROTAC activity at VHL/SOS1 in human NCI-H358 cells harboring KRAS G12R mutant assessed as induction of SOS1 degradation incubated for 24 hrs by immunoblotting analysis; format: cell-based
# Sequence of von Hippel-Lindau disease tumor suppressor/Son of sevenless homolog 1 (Homo sapiens, UniProt Q07889+P40337, G12R) (P40337 whole entry, looked up, stated change not applied, one chain of several): as above
# [28] = biological target: von Hippel-Lindau disease tumor suppressor/Son of sevenless homolog 1 (Homo sapiens, UniProt Q07889+P40337, G13D); assay: PROTAC activity at VHL/SOS1 in human NCI-H358 cells harboring KRAS G13D mutant assessed as induction of SOS1 degradation incubated for 24 hrs by immunoblotting analysis; format: cell-based
# Sequence of von Hippel-Lindau disease tumor suppressor/Son of sevenless homolog 1 (Homo sapiens, UniProt Q07889+P40337, G13D) (P40337 whole entry, looked up, stated change not applied, one chain of several): as above
# [29] = biological target: von Hippel-Lindau disease tumor suppressor/Son of sevenless homolog 1 (Homo sapiens, UniProt Q07889+P40337); assay: PROTAC activity at VHL/SOS1 in human NCI-H358 cells assessed as induction of SOS1 protein degradation incubated for 24 hrs by Immunoblot analysis; format: cell-based
# Sequence of von Hippel-Lindau disease tumor suppressor/Son of sevenless homolog 1 (Homo sapiens, UniProt Q07889+P40337) (P40337 whole entry, one chain of several): as the sequence (P40337 whole entry, looked up, stated change not applied, one chain of several) above
# [30] = test system: K562; assay: cells; conditions: Homo sapiens, K562, 72 h
compound,measurement,setting,value
Cc1nc(N[C@H](C)c2cccc(C(F)F)c2F)c2cc3c(cc2n1)OC[C@H]1CN(C(=O)C2(C#N)CC2)CCN31,half-life,[1],1.12 h
same,IC50,[2],5 nM
same,IC50,[3],178 nM
same,CLint scaled,[4],37.2 mL/min/kg
same,inhibition in vivo at 50 mg/kg,[5],71%
COC(=O)N1CCN2c3cc4c(N[C@H](C)c5cccc(C(F)F)c5F)nnc(C)c4cc3OC[C@H]2C1,half-life,[6],6.4 h
same,IC50,[7],1.1 nM
same,IC50,[2],1.6 nM
same,inhibition in vivo at 20 mg/kg,[8],87%
same,Ki,[9],3.9 nM
same,bioavailability,[10],65.8%
same,inhibition in vivo at 20 mg/kg,[11],42%
same,Vdss,[12],0.33 L/kg
same,IC50,[13],> 10000 nM
same,IC50,[14],43 nM
same,inhibition in vivo at 20 mg/kg,[15],104%
same,CL/F,[16],1.7 mL/min/kg
COc1cc2nc(C)nc(N[C@H](C)c3cc(N)cc(C(F)(F)F)c3)c2cc1C1CCN(C(=O)CCCCCC(=O)N[C@H](C(=O)N2C[C@H](O)C[C@H]2C(=O)N[C@@H](C)c2ccc(-c3scnc3C)cc2)C(C)(C)C)CC1,DC50,[17],8.41 nM
same,inhibition in vivo at 10 mg/kg,[18],> 65%
same,IC50,[19],6.97 nM
same,IC50,[20],6.97 nM
same,half-life,[21],9.69 h
same,DC50,[22],8.41 nM
same,DC50,[23],8.41 nM
same,inhibition in vivo at 10 mg/kg,[24],> 65%
same,DC50,[25],8.41 nM
same,AUC,[26],14100 ng·h/mL
same,DC50,[27],8.41 nM
same,DC50,[28],8.41 nM
same,DC50,[29],15.7 nM
COc1cc2nc(C)nc(N[C@H](C)c3cc(N)cc(C(F)(F)F)c3)c2cc1O[C@H]1CCOC1,IC50,[30],37 nM
